The record followed here is US10864159B2, “Method and composition for treating ocular hypertension and glaucoma” (Santen Pharmaceutical Co., Ltd., priority 2008, dated 2020).

This series is described as follows: Absorption of preservative-free tafluprost to low density polyethylene containers, remaining concentration by HPLC. The note with it: LDPE unit dose container, 20 weeks at 5° C., 25° C. and 40° C. The format is physicochemical. The protocol:
The effect of nonionic surfactant on the absorption of preservative-free tafluprost to low density polyethylene containers was studied for 20 weeks at 5° C., 25° C. and 40° C. Three different polysorbate 80 (Tween 80) concentrations, namely 0.05%, 0.075% and 0.1% were used. The composition of the preservative-free aqueous tafluprost formulation except polysorbate 80 was 0.0015% tafluprost, 2.25% glycerol, 0.2% sodium dihydrogen phosphate dihydrate, 0.05% disodium edetate and sodium hydroxide and/or hydrochloric acid to adjust the pH to 5.0-6.7. 0.3 ml of the composition prepared above was filled in the body part of the unit dose container (LDPE) and sealed by heating with the upper part of the container (LDPE). The inner volume of the unit dose container was ca. 1 ml. The container was packaged into paper coated aluminium-polyethylene foil and stored in refrigerator or incubator. The remaining concentration of tafluprost was measured by HPLC.

With `CC(C)OC(=O)CCC/C=C\C[C@@H]1[C@@H](/C=C/C(F)(F)COc2ccccc2)[C@H](O)C[C@@H]1O` [tafluprost], the “absorption of tafluprost to polyethylene” value (polysorbate 80 0.05 to 0.1%) is “inhibits the absorption of tafluprost” and the “absorption of tafluprost to polyethylene” value (polysorbate 80 0.075 to 0.1%) was “good inhibition effect of absorption of tafluprost”.
